From the supplement of paper PMC8671470
± gives the standard deviation of the averaged measurements.

These compounds were tested on HL-60 (assay: cell viability (% survival relative to DMSO control); higher = less cytotoxic). Details: 0.1 µM; 72 h; co-treatment: DMSO vehicle.
In short: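 For each screen, HL-60 cells in RPMI 1640 with 10% FBS carried either DMSO or 100 nM of one of three metabolic inhibitors while the full library was applied at five tenfold concentrations, 1–10,000 nM, in duplicate. Plates were 384-well and were kept 72 h at 37 °C, 5% CO2. Viability, measured by CellTiter-Glo, was normalised to wells with DMSO and with 10 μM proteasome inhibitor. Where area under the curve appears, it was fitted by four-parameter log-logistic models in drc and PharmacoGx.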

Q: For O=C(O)CC[N+](=O)[O-] [3-nitropropionic acid], which cell viability is on record?
A: Its cell viability is 107 ± 3.9%.

Q: C=CC(=O)c1ccc(O)cc1 [4-Acryloylphenol] was tested. Which cell viability did it give?
A: The cell viability was 100 ± 5.9%.

Q: Cc1[nH]nc(C(F)(F)F)c1Cc1sc2c(c1C(=O)N1C[C@](C)(O)CO1)c(=O)n(C)c(=O)n2C(C)C [AZD3965] was tested. Which cell viability did it give?
A: The cell viability was 97.9 ± 1.2%.

Q: How did the cell viability turn out when O=c1cc(-c2ccccc2)oc2c1ccc1ccccc12 [Alpha-Naphtoflavone] was run?
A: The cell viability was 97.6 ± 4.9%.

Same assay, conditions: 0.1 µM; 72 h; co-treatment: GSK2194069 100 nM

Q: For CN(CCCOc1ccc(Cc2ccccc2)cc1)CCC(=O)O, which cell viability is on record?
A: The cell viability was 105.1 ± 0.41%.

Q: COc1ccc2c(NC(=O)Nc3cccc(C(F)(F)F)n3)ccnc2c1 was tested. Which cell viability did it give?
A: The cell viability was 99.2 ± 1.9%.

Q: For O=c1cc(N2CCOCC2)oc2c(-c3ccccc3)cccc12, which cell viability is on record?
A: Its cell viability is 105 ± 5%.

Q: How did the cell viability turn out when O=C1C(SCCO)=C(SCCO)C(=O)c2ccccc21 was run?
A: The cell viability was 97.3 ± 9%.

Q: Cc1nc(-c2ccccc2)sc1C(=O)Nc1ccc(S(N)(=O)=O)cc1 was tested. Which cell viability did it give?
A: Its cell viability is 85.9 ± 4.9%.

Q: For O=C(O)CC[N+](=O)[O-] [3-nitropropionic acid], which cell viability is on record?
A: Its cell viability is 116 ± 17%.

Q: C=CC(=O)c1ccc(O)cc1 [4-Acryloylphenol] was tested. Which cell viability did it give?
A: Its cell viability is 96.21 ± 0.15%.

Q: For Cc1[nH]nc(C(F)(F)F)c1Cc1sc2c(c1C(=O)N1C[C@](C)(O)CO1)c(=O)n(C)c(=O)n2C(C)C [AZD3965], which cell viability is on record?
A: Its cell viability is 108 ± 2.7%.

Q: How did the cell viability turn out when O=c1cc(-c2ccccc2)oc2c1ccc1ccccc12 [Alpha-Naphtoflavone] was run?
A: The cell viability was 110 ± 9.3%.

Same assay, conditions: 0.1 µM; 72 h; co-treatment: pictilisib 100 nM

Q: With CN(CCCOc1ccc(Cc2ccccc2)cc1)CCC(=O)O as the compound, how does the cell viability read?
A: Its cell viability is 114 ± 20%.

Q: COc1ccc2c(NC(=O)Nc3cccc(C(F)(F)F)n3)ccnc2c1 was tested. Which cell viability did it give?
A: Its cell viability is 98.4 ± 18%.

Q: For O=c1cc(N2CCOCC2)oc2c(-c3ccccc3)cccc12, which cell viability is on record?
A: Its cell viability is 103 ± 1.6%.

Q: O=C1C(SCCO)=C(SCCO)C(=O)c2ccccc21 was tested. Which cell viability did it give?
A: Its cell viability is 95.6 ± 9.2%.

Q: For Cc1nc(-c2ccccc2)sc1C(=O)Nc1ccc(S(N)(=O)=O)cc1, which cell viability is on record?
A: Its cell viability is 92 ± 1.2%.

Q: Which cell viability does the source give for O=C(O)CC[N+](=O)[O-] [3-nitropropionic acid] here?
A: Its cell viability is 103 ± 4.1%.

Q: With C=CC(=O)c1ccc(O)cc1 [4-Acryloylphenol] as the compound, how does the cell viability read?
A: Its cell viability is 104 ± 3.7%.

Q: Which cell viability does the source give for Cc1[nH]nc(C(F)(F)F)c1Cc1sc2c(c1C(=O)N1C[C@](C)(O)CO1)c(=O)n(C)c(=O)n2C(C)C [AZD3965] here?
A: The cell viability was 109 ± 9.6%.

Q: For O=c1cc(-c2ccccc2)oc2c1ccc1ccccc12 [Alpha-Naphtoflavone], which cell viability is on record?
A: The cell viability was 99.3 ± 2%.

Same assay, conditions: 1 µM; 72 h; co-treatment: AZD3965 100 nM

Q: For CN(CCCOc1ccc(Cc2ccccc2)cc1)CCC(=O)O, which cell viability is on record?
A: Its cell viability is 99.6 ± 0.52%.

Q: COc1ccc2c(NC(=O)Nc3cccc(C(F)(F)F)n3)ccnc2c1 was tested. Which cell viability did it give?
A: The cell viability was 101.3 ± 0.29%.

Q: With O=c1cc(N2CCOCC2)oc2c(-c3ccccc3)cccc12 as the compound, how does the cell viability read?
A: The cell viability was 100 ± 6.1%.

Q: With O=C1C(SCCO)=C(SCCO)C(=O)c2ccccc21 as the compound, how does the cell viability read?
A: The cell viability was 95.3 ± 12%.

Q: How did the cell viability turn out when Cc1nc(-c2ccccc2)sc1C(=O)Nc1ccc(S(N)(=O)=O)cc1 was run?
A: The cell viability was 94.8 ± 7.5%.

Q: For O=C(O)CC[N+](=O)[O-] [3-nitropropionic acid], which cell viability is on record?
A: Its cell viability is 101.5 ± 0.46%.

Q: How did the cell viability turn out when C=CC(=O)c1ccc(O)cc1 [4-Acryloylphenol] was run?
A: Its cell viability is 99.4 ± 1.9%.

Q: How did the cell viability turn out when Cc1[nH]nc(C(F)(F)F)c1Cc1sc2c(c1C(=O)N1C[C@](C)(O)CO1)c(=O)n(C)c(=O)n2C(C)C [AZD3965] was run?
A: The cell viability was 92.2 ± 12%.

Q: How did the cell viability turn out when O=c1cc(-c2ccccc2)oc2c1ccc1ccccc12 [Alpha-Naphtoflavone] was run?
A: Its cell viability is 100.7 ± 0.43%.

Same assay, conditions: 1 µM; 72 h; co-treatment: DMSO vehicle

Q: For CN(CCCOc1ccc(Cc2ccccc2)cc1)CCC(=O)O, which cell viability is on record?
A: The cell viability was 100 ± 2.7%.

Q: Which cell viability does the source give for COc1ccc2c(NC(=O)Nc3cccc(C(F)(F)F)n3)ccnc2c1 here?
A: Its cell viability is 103 ± 5.3%.

Q: O=c1cc(N2CCOCC2)oc2c(-c3ccccc3)cccc12 was tested. Which cell viability did it give?
A: The cell viability was 91.6 ± 11%.

Q: O=C1C(SCCO)=C(SCCO)C(=O)c2ccccc21 was tested. Which cell viability did it give?
A: Its cell viability is 102 ± 4.8%.

Q: Which cell viability does the source give for Cc1nc(-c2ccccc2)sc1C(=O)Nc1ccc(S(N)(=O)=O)cc1 here?
A: The cell viability was 97.5 ± 1.4%.

Q: With O=C(O)CC[N+](=O)[O-] [3-nitropropionic acid] as the compound, how does the cell viability read?
A: Its cell viability is 111 ± 15%.

Q: With C=CC(=O)c1ccc(O)cc1 [4-Acryloylphenol] as the compound, how does the cell viability read?
A: Its cell viability is 102 ± 5.9%.

Q: Cc1[nH]nc(C(F)(F)F)c1Cc1sc2c(c1C(=O)N1C[C@](C)(O)CO1)c(=O)n(C)c(=O)n2C(C)C [AZD3965] was tested. Which cell viability did it give?
A: Its cell viability is 94.6 ± 2%.

Q: How did the cell viability turn out when O=c1cc(-c2ccccc2)oc2c1ccc1ccccc12 [Alpha-Naphtoflavone] was run?
A: The cell viability was 98.3 ± 3.9%.

Same assay, conditions: 1 µM; 72 h; co-treatment: GSK2194069 100 nM

Q: Which cell viability does the source give for CN(CCCOc1ccc(Cc2ccccc2)cc1)CCC(=O)O here?
A: The cell viability was 103 ± 9.3%.

Q: Which cell viability does the source give for COc1ccc2c(NC(=O)Nc3cccc(C(F)(F)F)n3)ccnc2c1 here?
A: The cell viability was 95.9 ± 8.1%.

Q: Which cell viability does the source give for O=c1cc(N2CCOCC2)oc2c(-c3ccccc3)cccc12 here?
A: The cell viability was 99.4 ± 1.9%.

Q: Which cell viability does the source give for O=C1C(SCCO)=C(SCCO)C(=O)c2ccccc21 here?
A: Its cell viability is 102 ± 4.9%.

Q: How did the cell viability turn out when Cc1nc(-c2ccccc2)sc1C(=O)Nc1ccc(S(N)(=O)=O)cc1 was run?
A: Its cell viability is 91.2 ± 9.1%.

Q: O=C(O)CC[N+](=O)[O-] [3-nitropropionic acid] was tested. Which cell viability did it give?
A: The cell viability was 115 ± 27%.

Q: C=CC(=O)c1ccc(O)cc1 [4-Acryloylphenol] was tested. Which cell viability did it give?
A: The cell viability was 105 ± 9.7%.

Q: With Cc1[nH]nc(C(F)(F)F)c1Cc1sc2c(c1C(=O)N1C[C@](C)(O)CO1)c(=O)n(C)c(=O)n2C(C)C [AZD3965] as the compound, how does the cell viability read?
A: Its cell viability is 97.5 ± 2.7%.

Q: For O=c1cc(-c2ccccc2)oc2c1ccc1ccccc12 [Alpha-Naphtoflavone], which cell viability is on record?
A: The cell viability was 99.9 ± 4.9%.

Same assay, conditions: 1 µM; 72 h; co-treatment: pictilisib 100 nM

Q: With CN(CCCOc1ccc(Cc2ccccc2)cc1)CCC(=O)O as the compound, how does the cell viability read?
A: The cell viability was 97.8 ± 4.1%.

Q: How did the cell viability turn out when COc1ccc2c(NC(=O)Nc3cccc(C(F)(F)F)n3)ccnc2c1 was run?
A: Its cell viability is 86.5 ± 24%.

Q: O=c1cc(N2CCOCC2)oc2c(-c3ccccc3)cccc12 was tested. Which cell viability did it give?
A: Its cell viability is 92.2 ± 13%.

Q: O=C1C(SCCO)=C(SCCO)C(=O)c2ccccc21 was tested. Which cell viability did it give?
A: The cell viability was 75.46 ± 0.6%.

Q: How did the cell viability turn out when Cc1nc(-c2ccccc2)sc1C(=O)Nc1ccc(S(N)(=O)=O)cc1 was run?
A: Its cell viability is 97.9 ± 1.8%.

Q: With O=C(O)CC[N+](=O)[O-] [3-nitropropionic acid] as the compound, how does the cell viability read?
A: Its cell viability is 128 ± 28%.

Q: Which cell viability does the source give for C=CC(=O)c1ccc(O)cc1 [4-Acryloylphenol] here?
A: The cell viability was 108 ± 23%.

Q: Cc1[nH]nc(C(F)(F)F)c1Cc1sc2c(c1C(=O)N1C[C@](C)(O)CO1)c(=O)n(C)c(=O)n2C(C)C [AZD3965] was tested. Which cell viability did it give?
A: The cell viability was 97.9 ± 21%.

Q: For O=c1cc(-c2ccccc2)oc2c1ccc1ccccc12 [Alpha-Naphtoflavone], which cell viability is on record?
A: The cell viability was 93 ± 4.5%.

Same assay, conditions: 10 µM; 72 h; co-treatment: AZD3965 100 nM

Q: CN(CCCOc1ccc(Cc2ccccc2)cc1)CCC(=O)O was tested. Which cell viability did it give?
A: The cell viability was 99.54 ± 0.33%.

Q: How did the cell viability turn out when COc1ccc2c(NC(=O)Nc3cccc(C(F)(F)F)n3)ccnc2c1 was run?
A: Its cell viability is 101 ± 8.5%.

Q: O=c1cc(N2CCOCC2)oc2c(-c3ccccc3)cccc12 was tested. Which cell viability did it give?
A: The cell viability was 75.2 ± 6.2%.

Q: For O=C1C(SCCO)=C(SCCO)C(=O)c2ccccc21, which cell viability is on record?
A: The cell viability was -0.491 ± 0.62%.
